# US10183022B2, “Pharmaceutical composition for treating ulcerative colitis” (EA Pharma Co., Ltd., priority 2014, dated 2019)
# Key:
# [1] = system: ulcerative colitis patients in an active stage; assay: Clinical study, 960 mg orally 3 times a day for 8 weeks: subscore for stool frequency of Mayo score; format: in vivo, human; parameters: Cases by subscore for stool frequency, figure in parentheses: unit not given here
# Procedure: (§1) The compound of Example 1 or the compound of Comparative Example 1 was orally administered after meals 3 times a day. The number of the given tablets was 8 per administration (i.e., the amount of the compound (1) of Example 1 administered was 960 mg per administration). The administration period was 8 weeks. The compounds were administered until the timing after the breakfast on the day before the assessment day at Week 8.
# [Investigation Timings: Weeks 0, 2, 4, and 8 (or Discontinuation Time)]
# Based on the contents described in the symptom-recording diaries and so on, the investigators or sub-investigators investigated stool frequencies in 3 days immediately before each assessment day. Note that when the endoscopic examination on the large intestine was conducted, the investigation days were set to be the closest three days excluding the day of the endoscopic examination on the large intestine, the following day, and if a pre-treatment was performed for the endoscopic examination on the large intestine, the pre-treatment day.
# The investigators or sub-investigators investigated the stool frequency per day before the primary disease appeared, which served as a “normal frequency.” An average value (rounded to the nearest whole number) of the stool frequencies of the investigated three days was compared with the “normal frequency,” and scored according to the following criteria.
# [2] = system: ulcerative colitis patients in an active stage; assay: Clinical study, 960 mg orally 3 times a day for 8 weeks: subscore for mucosal finding (large intestine endoscopic examination), mucosal remission rate; format: in vivo, human; parameters: Cases by subscore for mucosal finding, figure in parentheses: unit not given here
# Procedure: as §1
# (3) Mucosal Finding (Large Intestine Endoscopic Examination) [Investigation Timings: Weeks 0 and 8 (or Discontinuation Time)]
# The investigators or sub-investigators conducted the endoscopic examination on the large intestine, and checked the state of the large intestinal mucosa.
# The endoscopic examination was conducted during a time from 7 days before Week 8 (or discontinuation time) until a medical interview at Week 8 (or discontinuation time). Note that the endoscopic examination on the large intestine at Week 8 (or discontinuation time) was conducted by the same physician at Week 0 when the situation allowed.
# The assessment at the site served as the “subscore for mucosal finding” of the Mayo score. At Week 8 (or discontinuation time) also, the same site as that at Week 0 was assessed as the “subscore for mucosal finding” of the Mayo score.
# A mucosal remission rate is a proportion of subjects each having a Mayo score with a subscore for mucosal finding of 1 point or less.
structure (smiles),measurement,setting,value
"COC(=O)[C@H](Cc1ccc(-n2c(=O)c3cc(N(C)C)ccc3n(C)c2=O)cc1)NC(=O)c1c(Cl)cccc1Cl [Example 1, methyl(2S)-2-(2,6-dichlorobenzamide)-3-{4-[6-(dimethylamino)-1-methyl-2,4-dioxo-1,4-dihydroquinazolin-3(2H)-yl]phenyl}propanoate]","Cases by subscore for stool frequency, figure in parentheses","[1]; Week 0, score 0",3.9
same,Number of cases by subscore for stool frequency,"[1]; Week 0, score 0",2
same,"Cases by subscore for stool frequency, figure in parentheses","[1]; Week 0, score 1",17.6
same,Number of cases by subscore for stool frequency,"[1]; Week 0, score 1",9
same,"Cases by subscore for stool frequency, figure in parentheses","[1]; Week 0, score 2",41.2
same,Number of cases by subscore for stool frequency,"[1]; Week 0, score 2",21
same,"Cases by subscore for stool frequency, figure in parentheses","[1]; Week 0, score 3",37.3
same,Number of cases by subscore for stool frequency,"[1]; Week 0, score 3",19
same,"Cases by subscore for stool frequency, figure in parentheses","[1]; Week 2, score 0",9.8
same,Number of cases by subscore for stool frequency,"[1]; Week 2, score 0",5
same,"Cases by subscore for stool frequency, figure in parentheses","[1]; Week 2, score 1",25.5
same,Number of cases by subscore for stool frequency,"[1]; Week 2, score 1",13
same,"Cases by subscore for stool frequency, figure in parentheses","[1]; Week 2, score 2",49.0
same,Number of cases by subscore for stool frequency,"[1]; Week 2, score 2",25
same,"Cases by subscore for stool frequency, figure in parentheses","[1]; Week 2, score 3",15.7
same,Number of cases by subscore for stool frequency,"[1]; Week 2, score 3",8
same,"Number of cases, cross tabulation of subscore for stool frequency","[1]; Week 2 score 0, Week 0 score 0",2
same,"Number of cases, cross tabulation of subscore for stool frequency","[1]; Week 2 score 0, Week 0 score 1",1
same,"Number of cases, cross tabulation of subscore for stool frequency","[1]; Week 2 score 0, Week 0 score 2",1
same,"Number of cases, cross tabulation of subscore for stool frequency","[1]; Week 2 score 0, Week 0 score 3",1
same,"Number of cases, cross tabulation of subscore for stool frequency","[1]; Week 2 score 1, Week 0 score 0",0
same,"Number of cases, cross tabulation of subscore for stool frequency","[1]; Week 2 score 1, Week 0 score 1",6
same,"Number of cases, cross tabulation of subscore for stool frequency","[1]; Week 2 score 1, Week 0 score 2",5
same,"Number of cases, cross tabulation of subscore for stool frequency","[1]; Week 2 score 1, Week 0 score 3",2
same,"Number of cases, cross tabulation of subscore for stool frequency","[1]; Week 2 score 2, Week 0 score 0",0
same,"Number of cases, cross tabulation of subscore for stool frequency","[1]; Week 2 score 2, Week 0 score 1",2
same,"Number of cases, cross tabulation of subscore for stool frequency","[1]; Week 2 score 2, Week 0 score 2",15
same,"Number of cases, cross tabulation of subscore for stool frequency","[1]; Week 2 score 2, Week 0 score 3",8
same,"Number of cases, cross tabulation of subscore for stool frequency","[1]; Week 2 score 3, Week 0 score 0",0
same,"Number of cases, cross tabulation of subscore for stool frequency","[1]; Week 2 score 3, Week 0 score 1",0
same,"Number of cases, cross tabulation of subscore for stool frequency","[1]; Week 2 score 3, Week 0 score 2",0
same,"Number of cases, cross tabulation of subscore for stool frequency","[1]; Week 2 score 3, Week 0 score 3",8
same,"Cases by subscore for stool frequency, figure in parentheses","[1]; Week 4, score 0",11.8
same,Number of cases by subscore for stool frequency,"[1]; Week 4, score 0",6
same,"Cases by subscore for stool frequency, figure in parentheses","[1]; Week 4, score 1",47.1
same,Number of cases by subscore for stool frequency,"[1]; Week 4, score 1",24
same,"Cases by subscore for stool frequency, figure in parentheses","[1]; Week 4, score 2",25.5
same,Number of cases by subscore for stool frequency,"[1]; Week 4, score 2",13
same,"Cases by subscore for stool frequency, figure in parentheses","[1]; Week 4, score 3",15.7
same,Number of cases by subscore for stool frequency,"[1]; Week 4, score 3",8
same,"Number of cases, cross tabulation of subscore for stool frequency","[1]; Week 4 score 0, Week 0 score 0",2
same,"Number of cases, cross tabulation of subscore for stool frequency","[1]; Week 4 score 0, Week 0 score 1",1
same,"Number of cases, cross tabulation of subscore for stool frequency","[1]; Week 4 score 0, Week 0 score 2",3
same,"Number of cases, cross tabulation of subscore for stool frequency","[1]; Week 4 score 0, Week 0 score 3",0
same,"Number of cases, cross tabulation of subscore for stool frequency","[1]; Week 4 score 1, Week 0 score 0",0
same,"Number of cases, cross tabulation of subscore for stool frequency","[1]; Week 4 score 1, Week 0 score 1",7
same,"Number of cases, cross tabulation of subscore for stool frequency","[1]; Week 4 score 1, Week 0 score 2",12
same,"Number of cases, cross tabulation of subscore for stool frequency","[1]; Week 4 score 1, Week 0 score 3",5
same,"Number of cases, cross tabulation of subscore for stool frequency","[1]; Week 4 score 2, Week 0 score 0",0
same,"Number of cases, cross tabulation of subscore for stool frequency","[1]; Week 4 score 2, Week 0 score 1",1
same,"Number of cases, cross tabulation of subscore for stool frequency","[1]; Week 4 score 2, Week 0 score 2",6
same,"Number of cases, cross tabulation of subscore for stool frequency","[1]; Week 4 score 2, Week 0 score 3",6
same,"Number of cases, cross tabulation of subscore for stool frequency","[1]; Week 4 score 3, Week 0 score 0",0
same,"Number of cases, cross tabulation of subscore for stool frequency","[1]; Week 4 score 3, Week 0 score 1",0
same,"Number of cases, cross tabulation of subscore for stool frequency","[1]; Week 4 score 3, Week 0 score 2",0
same,"Number of cases, cross tabulation of subscore for stool frequency","[1]; Week 4 score 3, Week 0 score 3",8
same,"Cases by subscore for stool frequency, figure in parentheses","[1]; Week 8, score 0",21.6
same,Number of cases by subscore for stool frequency,"[1]; Week 8, score 0",11
same,"Cases by subscore for stool frequency, figure in parentheses","[1]; Week 8, score 1",45.1
same,Number of cases by subscore for stool frequency,"[1]; Week 8, score 1",23
same,"Cases by subscore for stool frequency, figure in parentheses","[1]; Week 8, score 2",17.6
same,Number of cases by subscore for stool frequency,"[1]; Week 8, score 2",9
same,"Cases by subscore for stool frequency, figure in parentheses","[1]; Week 8, score 3",15.7
same,Number of cases by subscore for stool frequency,"[1]; Week 8, score 3",8
same,"Number of cases, cross tabulation of subscore for stool frequency","[1]; Week 8 score 0, Week 0 score 0",2
same,"Number of cases, cross tabulation of subscore for stool frequency","[1]; Week 8 score 0, Week 0 score 1",3
same,"Number of cases, cross tabulation of subscore for stool frequency","[1]; Week 8 score 0, Week 0 score 2",4
same,"Number of cases, cross tabulation of subscore for stool frequency","[1]; Week 8 score 0, Week 0 score 3",2
same,"Number of cases, cross tabulation of subscore for stool frequency","[1]; Week 8 score 1, Week 0 score 0",0
same,"Number of cases, cross tabulation of subscore for stool frequency","[1]; Week 8 score 1, Week 0 score 1",5
same,"Number of cases, cross tabulation of subscore for stool frequency","[1]; Week 8 score 1, Week 0 score 2",11
same,"Number of cases, cross tabulation of subscore for stool frequency","[1]; Week 8 score 1, Week 0 score 3",7
same,"Number of cases, cross tabulation of subscore for stool frequency","[1]; Week 8 score 2, Week 0 score 0",0
same,"Number of cases, cross tabulation of subscore for stool frequency","[1]; Week 8 score 2, Week 0 score 1",1
same,"Number of cases, cross tabulation of subscore for stool frequency","[1]; Week 8 score 2, Week 0 score 2",5
same,"Number of cases, cross tabulation of subscore for stool frequency","[1]; Week 8 score 2, Week 0 score 3",3
same,"Number of cases, cross tabulation of subscore for stool frequency","[1]; Week 8 score 3, Week 0 score 0",0
same,"Number of cases, cross tabulation of subscore for stool frequency","[1]; Week 8 score 3, Week 0 score 1",0
same,"Number of cases, cross tabulation of subscore for stool frequency","[1]; Week 8 score 3, Week 0 score 2",1
same,"Number of cases, cross tabulation of subscore for stool frequency","[1]; Week 8 score 3, Week 0 score 3",7
same,"Cases by subscore for mucosal finding, figure in parentheses","[2]; Week 0, score 2",88.2
same,Number of cases by subscore for mucosal finding,"[2]; Week 0, score 2",45
same,"Cases by subscore for mucosal finding, figure in parentheses","[2]; Week 0, score 3",11.8
same,Number of cases by subscore for mucosal finding,"[2]; Week 0, score 3",6
same,"Difference in mucosal remission rates, Example 1 vs Comparative Example 1 (placebo)",[2]; Week 8,29.4%
same,Mucosal remission cases,"[2]; Week 8, 51 cases analyzed",30
same,Mucosal remission rate,"[2]; Week 8, all subjects",58.8%
same,"Cases by subscore for mucosal finding, figure in parentheses","[2]; Week 8, score 0",17.0
same,Number of cases by subscore for mucosal finding,"[2]; Week 8, score 0",8
same,"Cases by subscore for mucosal finding, figure in parentheses","[2]; Week 8, score 1",46.8
same,Number of cases by subscore for mucosal finding,"[2]; Week 8, score 1",22
same,"Cases by subscore for mucosal finding, figure in parentheses","[2]; Week 8, score 2",34.0
same,Number of cases by subscore for mucosal finding,"[2]; Week 8, score 2",16
same,"Cases by subscore for mucosal finding, figure in parentheses","[2]; Week 8, score 3",2.1
same,Number of cases by subscore for mucosal finding,"[2]; Week 8, score 3",1
same,"Number of cases, cross tabulation of subscore for mucosal finding","[2]; Week 8 score 0, Week 0 score 2",7
same,"Number of cases, cross tabulation of subscore for mucosal finding","[2]; Week 8 score 0, Week 0 score 3",1
same,"Number of cases, cross tabulation of subscore for mucosal finding","[2]; Week 8 score 1, Week 0 score 2",22
same,"Number of cases, cross tabulation of subscore for mucosal finding","[2]; Week 8 score 1, Week 0 score 3",0
same,"Number of cases, cross tabulation of subscore for mucosal finding","[2]; Week 8 score 2, Week 0 score 2",13
same,"Number of cases, cross tabulation of subscore for mucosal finding","[2]; Week 8 score 2, Week 0 score 3",3
same,"Number of cases, cross tabulation of subscore for mucosal finding","[2]; Week 8 score 3, Week 0 score 2",0
same,"Number of cases, cross tabulation of subscore for mucosal finding","[2]; Week 8 score 3, Week 0 score 3",1
same,Mucosal remission rate,[2]; body weight 50 kg or more and disease period less than 5 years (16/22 cases),72.7%
